Test results published in ChEMBL document CHEMBL1201862, “PubChem BioAssay data set” (2004).
One block for each molecule: values may come before it. Activity calls are given as the source filed them.

Legend:
[1] = target: T1, Mu-type opioid receptor (Homo sapiens, UniProt P35372); assay: mu opioid receptor activators, image-based, SAR follow-up (AID 2352); type: functional
[2] = target: T2, Delta-type opioid receptor (Homo sapiens, UniProt P41143); assay: DOR agonists, SAR follow-up, image-based (AID 2370); type: functional
[3] = target: T3, Kappa-type opioid receptor (Homo sapiens, UniProt P41145); assay: kappa opioid receptor blockers, image-based, SAR follow-up (AID 2348); type: functional
[4] = target: T1, Mu-type opioid receptor; assay: mu opioid receptor blockers – image-based, SAR follow-up (AID 2420); type: functional;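 further: compounds added before stimulation of receptor with agonist DAMGO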
[5] = target: T3, Kappa-type opioid receptor; assay: kappa opioid receptor activation potency – imaging, image-based, SAR follow-up (AID 2359); type: functional
[6] = target: T2, Delta-type opioid receptor; assay: delta opioid receptor blockers – image-based, SAR follow-up (AID 2357); type: functional
[7] = target: T3, Kappa-type opioid receptor; assay: kappa opioid receptor blockers, cell-based, luminescence, beta-arrestin, SAR follow-up (AID 2285); type: functional
[8] = target: Large T antigen (Simian virus 40, UniProt P03070); type: functional, Betapolyomavirus macacae;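 further: Confirmatory-stage PubChem screen for compounds that inhibit SV40 T antigen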
[9] = target: ORF 73 (Human herpesvirus 8, UniProt O40947); assay: KSHV LANA DNA-binding disruption – biochemical, fluorescence polarization, cherry-picked samples, dose response (AID 504725); parameters: species or system Human gammaherpesvirus 8;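 further: fluorescence polarization of a labeled DNA duplex reporting LANA DNA binding; potency is for inhibitors that block LANA binding to the DNA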
[10] = target: Intestinal-type alkaline phosphatase (Homo sapiens, UniProt P09923); assay: activation of human intestinal alkaline phosphatase – biochemical, dose response (AID 488873); type: functional
[11] = target: Intestinal-type alkaline phosphatase (Mus musculus, UniProt P24822); assay: mouse intestinal alkaline phosphatase activators, dose response, biochemical, luminescence, uHTS hits (AID 488783); type: functional
[12] = target: T4, Alkaline phosphatase, tissue-nonspecific isozyme (Homo sapiens, UniProt P05186); assay: activation of tissue-nonspecific alkaline phosphatase – biochemical, TNAP isozyme, mouse IAP uHTS hits, selectivity assay for mouse IAP activator project, dose response (AID 488880); type: functional
T4 sequence (P05186 whole entry): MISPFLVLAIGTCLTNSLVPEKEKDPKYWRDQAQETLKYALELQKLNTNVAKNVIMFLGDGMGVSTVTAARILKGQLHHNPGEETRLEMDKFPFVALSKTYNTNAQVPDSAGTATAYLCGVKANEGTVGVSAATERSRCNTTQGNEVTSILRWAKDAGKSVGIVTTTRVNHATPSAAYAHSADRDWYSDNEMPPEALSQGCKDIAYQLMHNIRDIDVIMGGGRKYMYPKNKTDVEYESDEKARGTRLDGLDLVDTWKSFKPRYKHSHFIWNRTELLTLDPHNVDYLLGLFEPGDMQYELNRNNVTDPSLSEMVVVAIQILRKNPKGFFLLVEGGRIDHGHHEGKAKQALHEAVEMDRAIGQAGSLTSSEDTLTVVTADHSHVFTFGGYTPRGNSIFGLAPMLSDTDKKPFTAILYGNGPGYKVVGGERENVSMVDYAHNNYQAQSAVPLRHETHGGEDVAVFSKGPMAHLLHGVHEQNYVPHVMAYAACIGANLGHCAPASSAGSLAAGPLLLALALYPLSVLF

[13] = target: T5, Rac GTPase-activating protein 1 (Homo sapiens, UniProt Q9H0H5); assay: blockers of MgcRacGAP-driven Rac1 GTP hydrolysis – biochemical, ADP Hunter fluorescence, primary and confirmatory, confirmation (AID 624330); type: functional
T5 sequence (Q9H0H5 whole entry): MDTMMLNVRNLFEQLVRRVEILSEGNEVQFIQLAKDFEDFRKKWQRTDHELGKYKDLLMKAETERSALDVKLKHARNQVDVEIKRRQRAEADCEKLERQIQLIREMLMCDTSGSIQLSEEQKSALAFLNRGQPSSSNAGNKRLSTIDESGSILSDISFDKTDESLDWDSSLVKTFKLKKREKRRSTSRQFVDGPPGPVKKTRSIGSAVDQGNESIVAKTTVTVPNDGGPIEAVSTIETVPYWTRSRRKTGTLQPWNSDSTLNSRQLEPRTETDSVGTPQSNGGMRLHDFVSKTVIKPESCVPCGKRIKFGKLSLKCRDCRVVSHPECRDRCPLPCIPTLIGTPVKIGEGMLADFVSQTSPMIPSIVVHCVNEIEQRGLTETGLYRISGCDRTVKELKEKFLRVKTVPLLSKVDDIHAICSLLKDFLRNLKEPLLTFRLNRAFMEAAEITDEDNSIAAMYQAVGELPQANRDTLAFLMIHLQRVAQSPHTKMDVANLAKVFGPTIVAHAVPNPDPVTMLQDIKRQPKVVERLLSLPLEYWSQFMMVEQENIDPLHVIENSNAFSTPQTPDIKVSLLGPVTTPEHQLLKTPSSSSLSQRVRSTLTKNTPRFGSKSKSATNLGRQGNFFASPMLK

[14] = target: T6, Histone-lysine N-methyltransferase NSD2 (Homo sapiens, UniProt O96028); type: biochemical
T6 sequence (O96028 whole entry): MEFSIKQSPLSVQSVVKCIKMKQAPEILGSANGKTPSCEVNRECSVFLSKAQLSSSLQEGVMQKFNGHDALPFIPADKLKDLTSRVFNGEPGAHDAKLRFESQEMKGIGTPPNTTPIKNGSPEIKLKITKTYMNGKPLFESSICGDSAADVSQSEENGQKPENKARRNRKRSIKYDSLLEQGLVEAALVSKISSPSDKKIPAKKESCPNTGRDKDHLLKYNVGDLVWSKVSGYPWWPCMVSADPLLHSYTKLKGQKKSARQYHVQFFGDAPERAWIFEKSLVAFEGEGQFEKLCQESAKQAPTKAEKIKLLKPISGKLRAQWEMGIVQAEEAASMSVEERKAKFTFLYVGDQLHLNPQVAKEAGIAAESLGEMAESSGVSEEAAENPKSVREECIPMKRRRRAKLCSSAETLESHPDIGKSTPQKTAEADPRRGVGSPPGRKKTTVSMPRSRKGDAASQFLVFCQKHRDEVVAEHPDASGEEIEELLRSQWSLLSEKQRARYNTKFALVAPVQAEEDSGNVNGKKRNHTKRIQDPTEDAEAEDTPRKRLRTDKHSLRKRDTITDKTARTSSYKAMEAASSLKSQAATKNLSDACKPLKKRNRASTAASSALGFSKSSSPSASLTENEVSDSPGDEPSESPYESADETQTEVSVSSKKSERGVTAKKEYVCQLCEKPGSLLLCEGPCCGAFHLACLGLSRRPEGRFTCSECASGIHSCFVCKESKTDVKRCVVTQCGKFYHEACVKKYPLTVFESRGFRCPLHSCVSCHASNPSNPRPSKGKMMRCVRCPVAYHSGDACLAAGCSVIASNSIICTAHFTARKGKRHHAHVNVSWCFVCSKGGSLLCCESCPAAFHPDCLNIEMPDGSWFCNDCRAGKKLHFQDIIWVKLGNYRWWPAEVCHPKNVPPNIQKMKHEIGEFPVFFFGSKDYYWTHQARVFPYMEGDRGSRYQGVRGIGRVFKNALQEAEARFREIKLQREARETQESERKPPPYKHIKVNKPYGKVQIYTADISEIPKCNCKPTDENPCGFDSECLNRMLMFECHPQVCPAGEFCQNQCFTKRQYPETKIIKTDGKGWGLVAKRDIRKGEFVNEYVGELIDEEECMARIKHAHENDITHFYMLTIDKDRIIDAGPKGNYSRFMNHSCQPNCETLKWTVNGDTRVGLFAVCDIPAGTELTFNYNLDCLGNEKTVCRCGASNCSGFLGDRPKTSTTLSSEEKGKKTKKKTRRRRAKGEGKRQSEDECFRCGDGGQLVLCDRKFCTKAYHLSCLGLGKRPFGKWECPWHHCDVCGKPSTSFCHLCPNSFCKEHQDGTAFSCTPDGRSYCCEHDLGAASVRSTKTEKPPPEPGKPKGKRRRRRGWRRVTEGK

[15] = target: T3, Kappa-type opioid receptor; assay: kappa opioid receptor activation by imaging – image-based, set 3, SAR follow-up (AID 488833); type: functional
[16] = target: T1, Mu-type opioid receptor; assay: SAR Analysis of Agonists of the MOR Receptor using an Image-Based Assay - Set 3. [Related pubchem assays (depositor defined):AID1777, AID1785, AID1786, AID1966, AID2133, AID2136, AID2284, AID2285, AID2352]; type: functional
[17] = target: T2, Delta-type opioid receptor; assay: SAR Analysis of Agonists of the DOR Receptor using an Image-Based Assay - Set 3. [Related pubchem assays (depositor defined):AID1777, AID1786]; type: functional
[18] = target: T3, Kappa-type opioid receptor; assay: SAR analysis of small molecule agonists of the kappa opioid receptor via a luminescent beta-arrestin assay - Set 3. [Related pubchem assays (depositor defined):AID1777, AID1785, AID1786, AID1966, AID2133, AID2136, AID2284, AID2500]; type: functional

T2 sequence (P41143 whole entry): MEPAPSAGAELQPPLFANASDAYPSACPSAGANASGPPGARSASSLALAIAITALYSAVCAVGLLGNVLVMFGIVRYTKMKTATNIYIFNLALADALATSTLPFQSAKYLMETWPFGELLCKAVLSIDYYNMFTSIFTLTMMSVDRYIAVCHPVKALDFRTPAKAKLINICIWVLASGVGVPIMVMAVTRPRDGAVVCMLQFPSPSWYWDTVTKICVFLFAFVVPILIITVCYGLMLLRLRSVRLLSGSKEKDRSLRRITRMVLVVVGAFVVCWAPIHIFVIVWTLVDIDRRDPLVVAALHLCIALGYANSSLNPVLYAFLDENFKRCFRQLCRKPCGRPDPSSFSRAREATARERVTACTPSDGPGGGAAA
T3 sequence (P41145 whole entry): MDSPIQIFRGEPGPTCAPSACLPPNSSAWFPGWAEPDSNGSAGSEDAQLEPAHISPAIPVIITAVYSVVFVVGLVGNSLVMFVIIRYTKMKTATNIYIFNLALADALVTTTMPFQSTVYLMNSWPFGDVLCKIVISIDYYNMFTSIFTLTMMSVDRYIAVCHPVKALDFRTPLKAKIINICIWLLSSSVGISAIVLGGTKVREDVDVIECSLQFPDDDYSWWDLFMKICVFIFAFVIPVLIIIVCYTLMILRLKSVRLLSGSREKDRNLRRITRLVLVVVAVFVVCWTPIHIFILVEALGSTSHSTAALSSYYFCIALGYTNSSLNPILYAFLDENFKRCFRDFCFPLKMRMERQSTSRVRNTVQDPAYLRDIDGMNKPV
T1 sequence (P35372 whole entry): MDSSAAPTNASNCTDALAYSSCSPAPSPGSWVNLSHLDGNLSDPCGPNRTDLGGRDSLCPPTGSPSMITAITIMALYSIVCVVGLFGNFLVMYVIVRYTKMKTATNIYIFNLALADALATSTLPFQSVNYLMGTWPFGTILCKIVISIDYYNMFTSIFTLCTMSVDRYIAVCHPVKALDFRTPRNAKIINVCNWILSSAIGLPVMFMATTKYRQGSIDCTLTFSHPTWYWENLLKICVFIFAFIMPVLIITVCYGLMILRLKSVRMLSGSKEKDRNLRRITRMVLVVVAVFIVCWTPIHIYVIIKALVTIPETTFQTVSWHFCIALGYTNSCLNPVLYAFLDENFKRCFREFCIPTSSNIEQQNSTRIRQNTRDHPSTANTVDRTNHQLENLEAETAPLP
Sequence of Intestinal-type alkaline phosphatase (Homo sapiens, UniProt P09923) (P09923 whole entry): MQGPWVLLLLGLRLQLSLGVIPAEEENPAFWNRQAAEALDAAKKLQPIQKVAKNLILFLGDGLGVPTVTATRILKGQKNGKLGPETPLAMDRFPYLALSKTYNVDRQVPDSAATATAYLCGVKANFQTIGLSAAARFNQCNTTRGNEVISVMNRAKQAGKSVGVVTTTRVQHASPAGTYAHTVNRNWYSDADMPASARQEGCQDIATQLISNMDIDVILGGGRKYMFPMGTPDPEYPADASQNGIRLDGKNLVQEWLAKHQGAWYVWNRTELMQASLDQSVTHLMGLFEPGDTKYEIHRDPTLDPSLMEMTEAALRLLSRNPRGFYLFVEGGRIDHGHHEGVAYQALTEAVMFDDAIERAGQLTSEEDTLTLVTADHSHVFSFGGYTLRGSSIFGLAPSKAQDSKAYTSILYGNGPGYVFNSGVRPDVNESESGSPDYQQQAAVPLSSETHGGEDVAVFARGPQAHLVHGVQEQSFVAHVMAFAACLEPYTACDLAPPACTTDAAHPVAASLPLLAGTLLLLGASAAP
Sequence of Large T antigen (P03070 whole entry): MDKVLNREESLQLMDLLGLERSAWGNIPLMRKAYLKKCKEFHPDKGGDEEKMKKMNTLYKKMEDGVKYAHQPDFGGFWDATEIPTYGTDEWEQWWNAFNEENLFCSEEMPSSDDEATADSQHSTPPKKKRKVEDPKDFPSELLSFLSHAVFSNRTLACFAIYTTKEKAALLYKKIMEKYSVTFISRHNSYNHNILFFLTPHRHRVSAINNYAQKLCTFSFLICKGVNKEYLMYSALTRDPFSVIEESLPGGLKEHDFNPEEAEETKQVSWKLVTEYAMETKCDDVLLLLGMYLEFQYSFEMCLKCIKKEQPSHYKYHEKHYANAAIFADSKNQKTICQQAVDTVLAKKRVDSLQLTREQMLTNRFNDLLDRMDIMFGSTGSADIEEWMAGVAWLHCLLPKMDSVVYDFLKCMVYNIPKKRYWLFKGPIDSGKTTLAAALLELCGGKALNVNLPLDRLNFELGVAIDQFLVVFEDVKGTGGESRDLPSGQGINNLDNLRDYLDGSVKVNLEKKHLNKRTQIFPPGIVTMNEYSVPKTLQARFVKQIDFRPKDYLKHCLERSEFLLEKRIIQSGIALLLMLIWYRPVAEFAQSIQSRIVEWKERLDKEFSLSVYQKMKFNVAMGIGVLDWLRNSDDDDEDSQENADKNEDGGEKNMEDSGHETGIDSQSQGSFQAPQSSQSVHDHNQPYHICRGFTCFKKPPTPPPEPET
Sequence of ORF 73 (O40947 whole entry): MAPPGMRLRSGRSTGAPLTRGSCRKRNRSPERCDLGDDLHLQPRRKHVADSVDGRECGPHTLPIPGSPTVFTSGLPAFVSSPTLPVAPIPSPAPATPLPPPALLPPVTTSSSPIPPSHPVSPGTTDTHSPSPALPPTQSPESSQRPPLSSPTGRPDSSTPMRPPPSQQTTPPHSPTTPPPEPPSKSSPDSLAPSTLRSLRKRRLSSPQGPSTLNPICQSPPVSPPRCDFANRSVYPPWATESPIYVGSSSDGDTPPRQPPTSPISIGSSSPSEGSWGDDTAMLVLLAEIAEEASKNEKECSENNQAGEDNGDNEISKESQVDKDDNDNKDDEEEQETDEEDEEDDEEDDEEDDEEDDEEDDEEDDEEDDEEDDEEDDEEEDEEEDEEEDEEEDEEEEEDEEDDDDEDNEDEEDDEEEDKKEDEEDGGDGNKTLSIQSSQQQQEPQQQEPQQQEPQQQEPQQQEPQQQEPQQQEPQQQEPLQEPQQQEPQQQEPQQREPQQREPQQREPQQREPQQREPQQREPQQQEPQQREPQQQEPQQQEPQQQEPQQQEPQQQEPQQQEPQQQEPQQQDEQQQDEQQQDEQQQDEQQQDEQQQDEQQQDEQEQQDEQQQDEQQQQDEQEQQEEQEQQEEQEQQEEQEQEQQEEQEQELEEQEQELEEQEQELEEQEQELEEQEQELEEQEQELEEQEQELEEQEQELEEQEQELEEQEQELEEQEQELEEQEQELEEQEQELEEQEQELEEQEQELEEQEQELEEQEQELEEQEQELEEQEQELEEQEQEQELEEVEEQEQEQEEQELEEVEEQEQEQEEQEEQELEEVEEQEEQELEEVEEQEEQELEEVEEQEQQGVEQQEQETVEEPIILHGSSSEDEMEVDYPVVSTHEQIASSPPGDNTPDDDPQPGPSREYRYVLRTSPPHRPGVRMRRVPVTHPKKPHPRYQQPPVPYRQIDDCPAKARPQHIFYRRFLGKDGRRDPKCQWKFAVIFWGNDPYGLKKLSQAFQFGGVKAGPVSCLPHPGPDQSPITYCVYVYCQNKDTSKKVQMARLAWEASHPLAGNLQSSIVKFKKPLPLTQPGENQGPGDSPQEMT
Sequence of Intestinal-type alkaline phosphatase (Mus musculus, UniProt P24822) (P24822 whole entry): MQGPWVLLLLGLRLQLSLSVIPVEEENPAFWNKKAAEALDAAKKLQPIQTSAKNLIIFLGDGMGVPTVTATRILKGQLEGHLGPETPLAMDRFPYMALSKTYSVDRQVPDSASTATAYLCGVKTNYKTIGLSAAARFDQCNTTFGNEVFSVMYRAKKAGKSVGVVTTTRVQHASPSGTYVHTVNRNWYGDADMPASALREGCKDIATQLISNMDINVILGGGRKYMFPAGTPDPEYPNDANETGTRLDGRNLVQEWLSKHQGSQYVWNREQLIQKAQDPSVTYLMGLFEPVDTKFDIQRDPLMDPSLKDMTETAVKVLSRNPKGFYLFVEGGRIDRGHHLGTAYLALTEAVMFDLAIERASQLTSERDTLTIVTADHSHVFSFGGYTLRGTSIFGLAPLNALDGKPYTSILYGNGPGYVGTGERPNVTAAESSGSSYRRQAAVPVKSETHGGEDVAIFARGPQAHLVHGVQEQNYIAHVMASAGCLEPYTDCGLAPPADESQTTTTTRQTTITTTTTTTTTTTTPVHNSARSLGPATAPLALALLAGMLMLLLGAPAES

EC50 [1]: > 32 µM (inactive)
EC50 [2]: > 32 µM (inactive)
IC50 [3]: 15.3 µM (inactive)
IC50 [4]: > 32 µM (inactive)
EC50 [5]: > 32 µM (inactive)
IC50 [6]: > 32 µM (inactive)
IC50 [7]: 4.32 µM (active)
SMILES: COc1ccc(N2CCN(CCCNC(=O)Cn3c(=O)c4cccn4c4ccccc43)CC2)cc1

IC50 [8]: 7.22 µM (active)
AC50 [9]: 161 µM (active)
EC50 [10]: 9.7 µM (active)
EC50 [11]: 100 µM (inactive)
EC50 [12]: 9.2 µM (active)
IC50 [13]: 66 µM (active)
AC50 [14]: 3.26 µM (active)
SMILES: N=C1/C(=C/c2ccc(O)c(O)c2)C(=O)N=C2SC(CC(=O)N3CCCC3)=NN12

EC50 [15]: > 32 µM (inactive)
EC50 [16]: > 32 µM (inactive)
EC50 [17]: > 64 µM (inactive)
EC50 [18]: 15.3 µM (inactive)
SMILES: COc1cccc(CSc2nnc(-c3ccccn3)n2Cc2ccco2)c1
